Data from patent publication US20120172413A1, “INCREASING LIFESPAN BY MODULATING CRTC EXPRESSION OR LOCALIZATION, AND METHODS OF SCREENING FOR MODULATORS OF SAME” (THE SALK INSTITUTE FOR BIOLOGICAL STUDIES, priority 2009, published 2012).
“Also recorded” adds a separate entry of the source. Structures can show the parent of a compound that is named as a salt.

Assays:
[1] = tested on: CRTC-1::RFP localization in C. elegans intestinal cells; test: CRTC-1::RFP localization during tricaine time course (microscopy); format: in vivo
Description: Except for tricaine time course experiments, worms were in 5 μl anesthetic mounted on 2% agarose pads on glass slides under glass cover slips. All photos were taken using a Zeiss Axiovert microscope & Axiocam. Pictures in FIGS. 2a and 3b used apotome optical sectioning. For the tricaine experiments (FIG. 4a&b), L4 worms were placed in wells of a 96 well plate in 100 μl of tetramisole/M9 with or without tricaine (2 mg/ml). Pictures were taken during time course through the 96 well plate.

[2] = tested on: CRTC-1::RFP localization in intestinal cells; test: Kinase redundancy assay: CRTC-1::RFP localization after tricaine treatment and removal; format: in vivo, C. elegans
Description: Worms were subjected to RNAi for AMPK family kinases from hatch. 24 hours post L4 worms were then picked into M9 with tricaine (2 mg/ml) in wells of a […]. Worms were left on a rotational shaker at 20° C. for 2 hours. Using a glass pipette (Mair, W. A simple yet effective method to manipulate C. elegans in liquid. Worm Breeders Gazette 18 (2009)), worms were then placed onto NG plates seeded with E. coli (0P50). When tricaine solution had evaporated (approx 20 min), worms were picked onto fresh OP50 plates, 5 worms per plate. […] Time=0 was when moved to fresh OP50 plates.

[3] = aak-1 (tm1944), aak-2 (ok524) mutants (AMPK null)

Row | Compound | effect on CRTC-1 localization ([1]; 0.1 mg/ml in M9 as anesthetic, pilot experiments) | re-location of CRTC-1::RFP to the cytosol upon drug removal [2, 3] | tricaine-induced nuclear localization of CRTC-1::RFP [2, 3] | re-location of CRTC-1::RFP to the cytosol upon drug removal ([2]; aak-1 (tm1944), aak-2 (ok524) mutants (AMPK null), listed as Tricaine) | reversibility of CRTC-1 nuclear localization after drug removal ([2]; wild type background) | CRTC-1::RFP localization ([1]; CRTC-1::RFP with calcineurin (TAX-6) binding site mutated, 60 minutes of tricaine treatment) | CRTC-1::RFP localization ([1]; tax-6 (ok2065) deletion mutant, up to 2 hours of tricaine treatment) | CRTC-1::RFP localization ([1]; wild type background, intestinal cells, tricaine (2 mg/ml) in M9) | time to CRTC-1::RFP nuclear localization ([1]; wild type background, tricaine added in M9) [min]
1 | c1ccc(C2CN3CCSC3=N2)cc1 (stereo not drawn) [tetramisole hydrochloride] | no effect | – | – | – | – | – | – | – | –
2 | CCOC(=O)c1cccc(N)c1 [tricaine] | – | relocated to the cytoplasm | expedited | delayed | reversible within two hours | did not shuttle into the nucleus; also recorded: no effect | invariably cytosolic; also recorded: does not respond | rapid nuclear localization | ≤ 30
